Tests used:
human H3 receptor [1] = molecular target: T1, human H3 receptor (Homo sapiens, UniProt Q9Y5N1); experiment: In vitro H3 binding assay (3H-N-α-methyl-histamine competition binding); settings: membranes of CHO-K1 cells expressing human H3 receptor; 2 nM 3H-NαMH; read-out: hH3 binding IC50
T1 construct: expressed in transfected cells
Protocol: The ability of compounds to bind to the H3 receptor was determined by measuring the reduction in tritiated N-α-methyl-histamine (^3H—NαMH) binding in a competition binding assay. Changes in the levels of bound radio-label were monitored by scintillation counting with a Trilux Microbeta (Perkin Elmer).
Membranes were prepared from CHO-K1 cells stably expressing human H3 receptor; routinely grown as monolayers in Ham's F12 medium (Invitrogen) supplemented with 10% Foetal Clone 111 (Hyclone), 500 μg/ml G418 (Invitrogen), 5 μg/ml blasticidine S (Invivogen) and […] Gentamicin (Sigma) in 5% CO2 at 37° C. Cells were grown to 80-95% confluency, rinsed once with 1×PBS (Invitrogen) and detached by incubating with 1×PBS containing 0.02% EDTA (Sigma) for 10 minutes at room temperature. Cells were collected by centrifugation at 900×g, 4° C. for 10 minutes. Cells were rinsed once with 1×PBS and re-suspended in ice cold homogenisation buffer (50 mM Tris-HCl (pH 7.4), 2.5 mM EDTA, 5 mM MgCl2, 200 mM Sucrose) at 1×10^7 cells/ml and kept on ice. Cells were homogenised on ice and debris removed by centrifugation at 500×g, 4° C. for 5 minutes. The resulting supernatant was centrifuged at 75,600×g, 4° C. for 60 minutes. Membranes were suspended in homogenisation buffer, protein concentration was determined (BCA Protein Assay kit (Pierce)), diluted to 2.2 mg/ml, dispensed into 1 ml aliquots and stored at −80° C.
Membranes were thawed on ice, sonicated with 4 cycles of 20 pulses (50% amplitude, 0.5 pulse) (UP200S Hielscher) on ice, diluted in assay buffer (50 mM Tris-HCl (pH7.4), 5 mM MgCl2) to 62.5 μg/ml. Compound was serially diluted in DMSO before being diluted 1:10 with assay buffer. 5 μg of membrane in 80 μl of assay buffer was added per well of a 96 well polystyrene plate (Corning). […] of compound was added per well. The assay was initiated by the addition of 10 μl of 20 nM ^3H—NαMH per well and incubated for one hour at room temperature with shaking. Total binding was determined in the presence of 1% DMSO and non-specific binding was determined by the inclusion of 1 μM R-α-methyl-histamine (RαMH). Incubations were then filtered through filtermat A (Perkin Elmer) and washed three times with assay buffer. Filtermats were dried at 42° C. for two hours, scintillant added and the level of bound radioactivity determined.
IC50 values for compounds were determined from seven point log scale dose-response studies and represent the concentration of compound required to inhibit 50% of the specific binding of 2 nM ^3H—NαMH (difference between total and non-specific binding). Curves were generated using the average of duplicate wells for each data point and analyzed using nonlinear regression of sigmoidal dose response (variable slope).

human H3 receptor [2] = molecular target: T1, human H3 receptor; experiment: In vitro H3 functional assay (cAMP response element driven luciferase reporter); format: cell-based; settings: CHO(dhfr+)-cre-luc cells expressing human H3 receptor; RαMH 10 nM, forskolin 1 μM; read-out: hH3 functional IC50
Protocol: The functional activity of compounds at the H3 receptor was determined by measuring changes in the level of intracellular cAMP using a cAMP response element driven luciferase reporter assay. The changes in luciferase expression were monitored by a luminescence plate reader, Analyst HT (MDS Analytical). Increases in intracellular cAMP were readily detected upon activation of protein kinase A by forskolin (Sigma) and suppression of this response observed with the application of the H3 receptor agonist RαMH (Sigma).
CHO(dhfr^+)-cre-luc cells stably expressing human H3 receptor were routinely grown as monolayers in Minimal Essential Medium α (MEMα) (Invitrogen) supplemented with 10% dialysed FBS (Hyclone), in 5% CO2 at 37° C. 48 hours prior to assay, cells were seeded in clear-base white walled 384-well plates (Corning) at a density of 5000 cells/well. On the day of assay, growth media was removed and replaced with […] of assay buffer (MEMα, 5 mg/ml fatty acid free BSA (Sigma)) per well. Cells were then incubated for 30 minutes at 37° C., 5% CO2. Compound was serially diluted in DMSO before being diluted 1:10 with assay buffer. 2.5 of compound diluted in assay buffer was added and cells incubated for 5 minutes at 37° C., 5% CO2. 2.5 μl of each reagent was then added in the following order: RαMH (10 nM), isobutylmethylxanthine (1-methyl-3-(2-methylpropyl)-7H-purine-2,6-dione; IBMX) (500 μM) (Sigma) and forskolin (1 μM). Cells were then incubated for 90 minutes at 37° C., 5% CO2, followed by 30 minutes at room temperature. At the end of incubation 25 μl of Steadylite reagent (Perkin Elmer) was added, plates were sealed and placed on a shaker for 5 minutes. The level of light output to determine the level of luciferase expression was then measured.
IC50 values for compounds were determined from ten point half log scale dose-response studies and represent the concentration of compound required to […] 50% inhibition of forskolin stimulated cells in the presence of RαMH alone. Curves were generated using the average of duplicate wells for each data point and analyzed using nonlinear regression of four parameter dose response.

T1 sequence (Q9Y5N1 whole entry): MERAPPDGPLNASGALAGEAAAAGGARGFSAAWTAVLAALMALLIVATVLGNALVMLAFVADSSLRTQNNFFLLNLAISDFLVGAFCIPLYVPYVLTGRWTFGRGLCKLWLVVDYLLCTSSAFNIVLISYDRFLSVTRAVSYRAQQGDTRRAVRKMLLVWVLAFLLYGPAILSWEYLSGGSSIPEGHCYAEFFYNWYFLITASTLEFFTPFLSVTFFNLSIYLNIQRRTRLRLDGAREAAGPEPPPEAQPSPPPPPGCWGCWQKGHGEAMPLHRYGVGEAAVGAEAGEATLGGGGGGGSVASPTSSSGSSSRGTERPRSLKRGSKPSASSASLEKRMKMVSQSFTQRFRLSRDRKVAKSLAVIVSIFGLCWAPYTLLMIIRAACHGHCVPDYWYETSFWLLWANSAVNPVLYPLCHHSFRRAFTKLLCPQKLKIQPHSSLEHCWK

| SMILES | IC50 (human H3 receptor [1]) [nM] | IC50 (human H3 receptor [2]) [nM] |
| --- | --- | --- |
| CCC(=O)N1CCC(CC(O)Cc2ccc3c(c2)CCN(C2CCC2)CC3)CC1 (single isomer, unassigned) [Example 233, 1-(4-(3-(3-cyclobutyl-2,3,4,5-tetrahydro-1H-benzo[d]azepin-7-yl)-2-hydroxypropyl)piperidin-1-yl)propan-1-one] | 2 | 16 |
| CCC(=O)N1CCC[C@H](CC(O)Cc2ccc3c(c2)CCN(C2CCC2)CC3)C1 (single isomer, unassigned) [Example 251] | 11 | 6 |
| CCC(=O)N1CCC(C)(C(O)Cc2ccc3c(c2)CCN(C2CCC2)CC3)CC1 (single isomer, unassigned) [Example 257, 1-{4-[2-(3-cyclobutyl-2,3,4,5-tetrahydro-1H-3-benzazepin-7-yl)-1-hydroxyethyl]-4-methylpiperidin-1-yl}propan-1-one] | 25 | 7 |
| O=C(NCc1ccccc1)c1ccc2c(c1)CCN(C1CCC1)CC2 [Example 23, N-Benzyl-3-cyclobutyl-2,3,4,5-tetrahydro-1H-benzo[d]azepine-7-carboxamide] | 11 | 2 |
| O=C(NCc1ccncc1)c1ccc2c(c1)CCN(C1CCC1)CC2 [Example 40, 3-Cyclobutyl-N-(pyridin-4-ylmethyl)-2,3,4,5-tetrahydro-1H-benzo[d]azepine-7-carboxamide] | 3 | 2 |
| Nc1ncccc1CNC(=O)c1ccc2c(c1)CCN(C1CCC1)CC2 [Example 44, N-((2-Aminopyridin-3-yl)methyl)-3-cyclobutyl-2,3,4,5-tetrahydro-1H-benzo[d]azepine-7-carboxamide] | 14 | 3 |
| CNC(=O)c1ccc(CNC(=O)c2ccc3c(c2)CCN(C2CCC2)CC3)cc1 [Example 53, 3-Cyclobutyl-N-(4-(methylcarbamoyl)benzyl)-2,3,4,5-tetrahydro-1H-benzo[d]azepine-7-carboxamide] | 51 | 6 |
| O=C(NCc1cccc(C(F)(F)F)c1)c1ccc2c(c1)CCN(C1CCC1)CC2 [Example 59, 3-Cyclobutyl-N-(3-(trifluoromethyl)benzyl)-2,3,4,5-tetrahydro-1H-benzo[d]azepine-7-carboxamide] | 6 | 3 |
| O=C(NCc1cccc(-n2cncn2)c1)c1ccc2c(c1)CCN(C1CCC1)CC2 [Example 68, N-(3-(1H-1,2,4-Triazol-1-yl)benzyl)-3-cyclobutyl-2,3,4,5-tetrahydro-1H-benzo[d]azepine-7-carboxamide] | 1 | 3 |
| O=C(NCc1cccc(-c2nccs2)c1)c1ccc2c(c1)CCN(C1CCC1)CC2 [Example 69, 3-Cyclobutyl-N-(3-(thiazol-2-yl)benzyl)-2,3,4,5-tetrahydro-1H-benzo[d]azepine-7-carboxamide] | 2 | 0.5 |
| O=C(NCc1cccc(Cn2cccn2)c1)c1ccc2c(c1)CCN(C1CCC1)CC2 [Example 70, N-(3-((1H-Pyrazol-1-yl)methyl)benzyl)-3-cyclobutyl-2,3,4,5-tetrahydro-1H-benzo[d]azepine-7-carboxamide] | 5 | 3 |
| O=C(NCc1c[nH]c2ccccc12)c1ccc2c(c1)CCN(C1CCC1)CC2 [Example 72, N-((1H-Indol-3-yl)methyl)-3-cyclobutyl-2,3,4,5-tetrahydro-1H-benzo[d]azepine-7-carboxamide] | 1 | 2 |
| Cn1nc(CNC(=O)c2ccc3c(c2)CCN(C2CCC2)CC3)c2ccccc21 [Example 73, 3-Cyclobutyl-N-((1-methyl-1H-indazol-3-yl)methyl)-2,3,4,5-tetrahydro-1H-benzo[d]azepine-7-carboxamide] | 12 | 1 |
| O=C(NCc1ccc2[nH]ccc2c1)c1ccc2c(c1)CCN(C1CCC1)CC2 [Example 74, N-((1H-Indol-5-yl)methyl)-3-cyclobutyl-2,3,4,5-tetrahydro-1H-benzo[d]azepine-7-carboxamide] | 3 | 1 |
| Cn1ccc2c(CNC(=O)c3ccc4c(c3)CCN(C3CCC3)CC4)cccc21 [Example 77, 3-Cyclobutyl-N-((1-methyl-1H-indol-4-yl)methyl)-2,3,4,5-tetrahydro-1H-benzo[d]azepine-7-carboxamide] | 3 | 1 |

The next lines start with the values.

| IC50 (human H3 receptor [1]) [nM] | IC50 (human H3 receptor [2]) [nM] | SMILES |
| --- | --- | --- |
| 1 | 0.7 | Cn1nccc1CNC(=O)c1ccc2c(c1)CCN(C1CCC1)CC2 [Example 1, 3-cyclobutyl-N-((1-methyl-1H-pyrazol-5-yl)methyl)-2,3,4,5-tetrahydro-1H-benzo[d]azepine-7-carboxamide] |
| 22 | 31 | O=C(NCC1CCNCC1)c1ccc2c(c1)CCN(C1CCC1)CC2 [Example 5, 3-Cyclobutyl-N-(piperidin-4-ylmethyl)-2,3,4,5-tetrahydro-1H-benzo[d]azepine-7-carboxamide] |
| 11 | 3 | O=C(NCc1cccnc1)c1ccc2c(c1)CCN(C1CCCC1)CC2 [Example 20, 3-Cyclopentyl-N-(pyridin-3-ylmethyl)-2,3,4,5-tetrahydro-1H-benzo[d]azepine-7-carboxamide] |
| 44 | 16 | CNC(=O)c1ccc2c(c1)CCN(C1CCC1)CC2 [Example 24, 3-Cyclobutyl-N-methyl-2,3,4,5-tetrahydro-1H-benzo[d]azepine-7-carboxamide] |
| 13 | 8 | O=C(NC1CCCC1)c1ccc2c(c1)CCN(C1CCC1)CC2 [Example 29, 3-Cyclobutyl-N-cyclopentyl-2,3,4,5-tetrahydro-1H-benzo[d]azepine-7-carboxamide] |
| 26 | 5 | O=C(NCC1CCCCC1)c1ccc2c(c1)CCN(C1CCC1)CC2 [Example 34, 3-Cyclobutyl-N-(cyclohexylmethyl)-2,3,4,5-tetrahydro-1H-benzo[d]azepine-7-carboxamide] |
| 11 | 1 | O=C(NCC1CCOCC1)c1ccc2c(c1)CCN(C1CCC1)CC2 [Example 35, 3-Cyclobutyl-N-((tetrahydro-2H-pyran-4-yl)methyl)-2,3,4,5-tetrahydro-1H-benzo[d]azepine-7-carboxamide] |
| 12 | 2 | O=C(NCC1CCCO1)c1ccc2c(c1)CCN(C1CCC1)CC2 (stereo not drawn) [Example 36, 3-cyclobutyl-N-((tetrahydrofuran-2-yl)methyl)-2,3,4,5-tetrahydro-1H-benzo[d]azepine-7-carboxamide] |
| 9 | 30 | O=C(NCc1cccnc1)c1ccc2c(c1)CCN(C1CCC1)CC2 [Example 42, 3-Cyclobutyl-N-(pyridin-3-ylmethyl)-2,3,4,5-tetrahydro-1H-benzo[d]azepine-7-carboxamide] |

Source: US20110124626A1, “BENZAZEPINE DERIVATIVES AND THEIR USE AS HISTAMINE H3 ANTAGONISTS” (TAKEDA PHARMACEUTICAL COMPANY LIMITED, priority 2008, published 2011)
